Assay results reported in US12534438B2, “Cannabinoid derivative as a pharmaceutically active compound and method of preparation thereof” (priority 2020, dated 2026).
Where two headings read alike, the source gives them in different places.

Tests used:
[1] = test system: mouse model of generalised seizure (tonic hind limb extensor convulsions); assay: Maximal electroshock seizure threshold (MEST) test in the mouse; conditions: 30 min post dose
Description: The efficacy of the cannabinoid derivative according to formula (I) was tested in a mouse model of generalised seizure, the maximal electroshock seizure threshold (MEST) test.
The maximal electroshock seizure threshold (MEST) test is widely utilized preclinically to evaluate pro- or anti-convulsant properties of test compounds (Loscher et al., 1991).
In the MEST test the ability of a drug to alter the seizure threshold current required to induce hind limb tonic extensor convulsions is measured according to an “up and down” method of shock titration (Kimball et al., 1957). An increase in seizure threshold is indicative of anti-convulsant effect.
The ability of a test compound to alter the stimulus intensity, expressed as current (mA), required to induce the presence of tonic hind limb extensor convulsions, is assessed in the MEST.
Naïve mice were acclimatised to the procedure room in their home cages for up to 7 days, with food and water available ad libitum.
All animals were weighed at the beginning of the study and randomly assigned to treatment groups based on a mean distribution of body weight across groups.
The first animal within a treatment group was given a shock at the expected or estimated CC50 current. For subsequent animals, the current was lowered or raised depending on the convulsions outcome from the preceding animal, in intervals of 5 mA.
Data generated from each treatment group were used to calculate the CC50±SEM values for the treatment group.
Vehicle: (5% ethanol, 10% solutol, 85% Saline) was prepared as follows: 1 mL of ethanol, 2 mL of solutol were warmed to 60° C., in 17 mL of saline (1:2:17).
The test compound, described herein as compound 1, is as shown as formula (I). Test compound was administered at 2, 20 and 200 mg/kg (i.p.) in a 1:2:17 ethanol:solutol:0.9% saline formulation.
The data for each treatment group were recorded as the number of +'s and 0's at each current level employed and this information is then used to calculate the CC50 value (current required for 50% of the animals to show seizure behaviour)±standard error.
Test compound effects were also calculated as percentage change in CC50 from the vehicle control group.
Significant difference between drug-treated animals and controls were assessed according to Litchfield and Wilcoxon (1949).

[2] = Plasma pharmacokinetics following oral dose administration to male Wistar Han rats; assay type: in vivo; conditions: rat, oral gavage; for half-life / AUC(0-inf) / AUC(0-t) / Cmax / Tmax: plasma
Description: The plasma pharmacokinetics of compound 1 was assessed following oral dose administration to male Wistar Han Rats.
The Wistar Han Rat was chosen as the animal model for this study as it is an accepted rodent species for preclinical toxicity testing by regulatory agencies. Animals were socially housed (up to 3 animals of the same group) in polycarbonate cages containing appropriate bedding equipped with water bottles and may be provided with items such as devices for hiding in, paper and/or objects for chewing, unless contraindicated by study procedures. Pelleted rodent diet were provided ad libitum throughout the study, except during designated procedures.
The 9 male animals were 8 to 10 weeks old at initiation of dosing.
Vehicle: 1% Ethanol/12% Kolliphor HS-15/87% Saline (w/w/v).
Dose formulation was prepared as follows: test item was dissolved in ethanol. Kolliphor HS-15 and saline was heated separately to 60° C., and the required amount of heated Kolliphor HS-15 added to the test item/ethanol solution. The mixture was stirred at until homogenous. Hot saline was added to the mixture to meet dose level requirements, and stirred at 60° C. until a homogenous solution. Prior to release, the formulations were allowed to cool to 40° C. Subsequently, the formulations were stored at room temperature until dosing.
Groups 1, 2 and 3: The test item was administered to the appropriate animals by oral gavage. The dose was given using a plastic feeding tube.
PK Sample Collection: From animals in Group 1 to 3 blood was collected according to the PK sample collection table (outlined in Table 3). Approximately 0.2 mL blood samples was taken from the jugular vein and collected into tubes containing K2 EDTA as anti-coagulant and stored on ice.
Sample Processing and Storage: Whole blood was processed to plasma by centrifugation (3000 g for 10 minutes at 5° C.) within 1 hour of collection. Plasma samples were transferred into labelled polypropylene tubes and stored at <−75° C. until shipment.

[3] = male, Wistar Han, in vivo, po, 15 mg/kg, 15 mg/kg (measured dose 15 mg/kg)
[4] = male, Wistar Han, in vivo, po, 45 mg/kg (measured dose 101 mg/kg)
[5] = male, Wistar Han, in vivo, po, 150 mg/kg (measured dose 204 mg/kg)

## C=C(C)[C@@H]1CCC(C)=C[C@H]1c1c(O)cc(-c2cnn(C)c2)cc1O [Compound 1, (1′R,2′R)-5′-methyl-4-(1-methyl-1H-pyrazol-4-yl)-2′-(prop-1-en-2-yl)-1′,2′,3′,4′-tetrahydro-[1,1′-biphenyl]-2,6-diol]
[1]; 2 mg/kg i.p.
  CC50 +/- SEM: 30.8 ± 1.0 mA
[1]; 20 mg/kg i.p.
  CC50 +/- SEM: 52.5 ± 1.3 mA
[1]; 200 mg/kg i.p.
  CC50 +/- SEM: 197.5 ± 20.4 mA
[1]; CC50, 2 mg/kg i.p.
  % change from vehicle: 27%
[1]; CC50, 20 mg/kg i.p.
  % change from vehicle: 116%
[1]; CC50, 200 mg/kg i.p.
  % change from vehicle: 712%
[2]; male, Wistar Han, in vivo, 15 mg/kg (measured dose 15 mg/kg)
  half-life: 3.3 h
[2]; male, Wistar Han, in vivo, 45 mg/kg (measured dose 101 mg/kg)
  half-life: 3.6 h
[2]; male, Wistar Han, in vivo, 150 mg/kg (measured dose 204 mg/kg)
  half-life: 4.3 h
[2]; [3]
  AUC(0-inf): 5330 ng·h/mL
  AUC(0-t): 4250 ng·h/mL
  Cmax: 1130 ng/mL
  Tmax: 1 h
[2]; male, Wistar Han, in vivo, po, 15 mg/kg, 15 mg/kg (measured dose 15 mg/kg), read-out: Bioavailability
  bioavailability: 69.6%
[2]; [4]
  AUC(0-inf): 48300 ng·h/mL
  AUC(0-t): 47900 ng·h/mL
  Cmax: 4010 ng/mL
  Tmax: 1 h
[2]; male, Wistar Han, in vivo, po, 45 mg/kg (measured dose 101 mg/kg), read-out: Bioavailability
  bioavailability: 96.4%
[2]; [5]
  AUC(0-inf): 105000 ng·h/mL
  AUC(0-t): 101000 ng·h/mL
  Cmax: 6730 ng/mL
  Tmax: 8 h
[2]; male, Wistar Han, in vivo, po, 150 mg/kg (measured dose 204 mg/kg), read-out: Bioavailability
  bioavailability: 107%
[2]; across concentrations (15, 45, 150 mg/kg)
  bioavailability: high

## CN1C(=O)CN=C(c2ccccc2)c2cc(Cl)ccc21 [Diazepam, diazepam, reference compound]
[1]; CC50, diazepam 2.5 mg/kg i.p.
  % change from vehicle: 223%
